Drawing on patent US20240018145A1, “[…]-DEPENDENT EN[…] TREATING OR […]” (priority 2020, published 2024), this text covers EC50 for 28 molecules.

One assay deals with FLU A (PR/8/34). Nature of the assay: Flu A Neuraminidase Antiviral Assay.
Details: not given
Format: cell-based.
One may read the EC50 as the concentration at which the effect is half-maximal. Lower therefore signals a more potent agent. `Cc1ccccc1C1C(CC(F)(F)F)CC(C)C2N(C)C(=O)c3c(O)c(=O)ccn3N12` (single isomer, unassigned) [Compound 79B, 7-hydroxy-4,5-dimethyl-1-(o-tolyl)-2-(2,2,2-trifluoroethyl)-1,2,3,4,4a,5-hexahydrodipyrido[1,2-b:2′,1′-f][1,2,4]triazine-6,8-dione] returned an EC50 of 2.3 nM. In other words, the single-digit nanomolar range.
On the same count and under the same terms, the figure for `CC1CC2N(C)C(=O)c3c(O)c(=O)ccn3N2C(C)(c2ccccc2)C1` (single isomer, unassigned) [Compound 43C, 7-hydroxy-1,3,5-trimethyl-1-phenyl-1,2,3,4,4a,5-hexahydrodipyrido[1,2-b:2′,1′-f][1,2,4]triazine-6,8-dione] is 14.1 nM.
Molecule `CN1C(=O)c2c(O)c(=O)ccn2N2C(c3ccc(Cl)c(F)c3)CCCC12` (single isomer, unassigned) [Compound 3A, 1-(4-chloro-3-fluorophenyl)-7-hydroxy-5-methyl-1,2,3,4,4a,5-hexahydrodipyrido[1,2-b:2′,1′-f][1,2,4]triazine-6,8-dione] returned an EC50 of 1020 nM. Against the preceding molecule, the EC50 is about 72-fold higher.
Same read-out and setting: the figure for `CC1(c2ccccn2)CCCC2N(CC(F)(F)F)C(=O)c3c(O)c(=O)ccn3N21` (single isomer, unassigned) [Compound 39B, 7-hydroxy-1-methyl-1-(pyridin-2-yl)-5-(2,2,2-trifluoroethyl)-1,2,3,4,4a,5-hexahydrodipyrido[1,2-b:2′,1′-f][1,2,4]triazine-6,8-dione] is 10.1 nM.
Same read-out and setting: under `CN1C(=O)c2c(O)c(=O)ccn2N2C1CCCC2(C)c1ccccn1` (single isomer, unassigned) [Compound 30B, 7-hydroxy-1,5-dimethyl-1-(pyridin-2-yl)-1,2,3,4,4a,5-hexahydrodipyrido[1,2-b:2′,1′-f][1,2,4]triazine-6,8-dione] stands 5300 nM; under `CN1C(=O)c2c(O)c(=O)ccn2N2C(c3ccc(F)cc3)C(CC(F)(F)F)CCC12` (single isomer, unassigned) [Compound 122B, 1-(4-fluorophenyl)-7-hydroxy-5-methyl-2-(2,2,2-trifluoroethyl)-1,2,3,4,4a,5-hexahydrodipyrido[1,2-b:2′,1′-f][1,2,4]triazine-6,8-dione], 5.2 nM.
Take `CCCC1CCC2N(C)C(=O)c3c(O)c(=O)ccn3N2C1c1ccccc1C` (single isomer, unassigned) [Compound 92A, 7-hydroxy-5-methyl-2-propyl-1-(o-tolyl)-1,2,3,4,4a,5-hexahydrodipyrido[1,2-b:2′,1′-f][1,2,4]triazine-6,8-dione]: a half-maximal response (EC50) required 4570 nM.
Same read-out and setting: the figure for `CN1C(=O)c2c(O)c(=O)ccn2N2C(c3ccccc3)CCCC12` (single isomer, unassigned) [Compound 1B, 7-hydroxy-5-methyl-1-phenyl-1,2,3,4,4a,5-hexahydrodipyrido[1,2-b:2′,1′-f][1,2,4]triazine-6,8-dione] is 39.6 nM; for `CCN1C(=O)c2c(O)c(=O)ccn2N2C(c3ccccc3)C(CC3(C(F)(F)F)CC3)CCC12` (single isomer, unassigned) [Compound 97B, 5-ethyl-7-hydroxy-1-phenyl-2-((1-(trifluoromethyl)cyclopropyl)methyl)-1,2,3,4,4a,5-hexahydrodipyrido[1,2-b:2′,1′-f][1,2,4]triazine-6,8-dione] it is 24.2 nM.
The same measure, in the same setting: the figure for `CN1C(=O)c2c(O)c(=O)ccn2N2C(c3ccccc3)C(C3CC3(F)F)CCC12` (single isomer, unassigned) [Compound 105B, 2-(2,2-difluorocyclopropyl)-7-hydroxy-5-methyl-1-phenyl-1,2,3,4,4a,5-hexahydrodipyrido[1,2-b:2′,1′-f][1,2,4]triazine-6,8-dione] is > 810 nM.
On the same count and under the same terms, the figure for `CN1C(=O)c2c(O)c(=O)ccn2N2C(c3cccc(Br)c3)C(CC(F)(F)F)CCC12` (single isomer, unassigned) [Compound 83A, 1-(3-bromophenyl)-7-hydroxy-5-methyl-2-(2,2,2-trifluoroethyl)-1,2,3,4,4a,5-hexahydrodipyrido[1,2-b:2′,1′-f][1,2,4]triazine-6,8-dione] is 152 nM; for `CN1C(=O)c2c(O)c(=O)ccn2N2C1CCC1(CC(F)(F)C1)C2c1ccccc1` (single isomer, unassigned) [Compound 74A, 3,3-difluoro-7′-hydroxy-5′-methyl-1′-phenyl-3′,4′,4a′,5′-tetrahydro-1′H-spiro[cyclobutane-1,2′-dipyrido[1,2-b:2′,1′-f][1,2,4]triazine]-6′,8′-dione] it is > 810 nM.
For the molecule `CC1CC2N(C)C(=O)c3c(O)c(=O)ccn3N2C(C)(c2ccccc2)C1` (single isomer, unassigned) [Compound 43A, 7-hydroxy-1,3,5-trimethyl-1-phenyl-1,2,3,4,4a,5-hexahydrodipyrido[1,2-b:2′,1′-f][1,2,4]triazine-6,8-dione], a half-maximal response (EC50) required 1170 nM.
Still for that read-out and setting: under `CN1C(=O)c2c(O)c(=O)ccn2N2C1CCCC2(C)c1cccc(Cl)c1` (single isomer, unassigned) [Compound 28A, 1-(3-chlorophenyl)-7-hydroxy-1,5-dimethyl-1,2,3,4,4a,5-hexahydrodipyrido[1,2-b:2′,1′-f][1,2,4]triazine-6,8-dione] stands 5.2 nM.
On the same count and under the same terms, the figure for `CCOC1CCC2N(C)C(=O)c3c(O)c(=O)ccn3N2C1c1ccccc1` (stereo not shown) [Compound 152A, 2-ethoxy-7-hydroxy-5-methyl-1-phenyl-1,2,3,4,4a,5-hexahydrodipyrido[1,2-b:2′,1′-f][1,2,4]triazine-6,8-dione] is 4300 nM.
With `Cc1ccccc1C1N2C(CCC13CCC(F)(F)CC3)N(C)C(=O)c1c(O)c(=O)ccn12` (single isomer, unassigned) [Compound 70B, 4,4-difluoro-7′-hydroxy-5′-methyl-1′-(o-tolyl)-3′,4′,4a′,5′-tetrahydro-1′H-spiro[cyclohexane-1,2′dipyrido[1,2-b:2′,1′-f][1,2,4]triazine]-6′,8′-dione], the concentration for a half-maximal effect (EC50) is 2 nM. Compared with the last molecule, the EC50 is about 2200-fold lower.
The same measure, in the same setting: under `CN1C(=O)c2c(O)c(=O)ccn2N2C1CCC1(CCC(C(F)(F)F)CC1)C2c1ccccc1` (single isomer, unassigned) [Compound 73A, 7′-hydroxy-5′-methyl-1′-phenyl-4-(trifluoromethyl)-3′,4′,4a′,5′-tetrahydro-1′H-spiro[cyclohexane-1,2′-dipyrido[1,2-b:2′,1′-f][1,2,4]triazine]-6′,8′-dione] stands > 810 nM; under `C=CCC1CCC2N(C)C(=O)c3c(O)c(=O)ccn3N2C1c1ccccc1Cl` (stereo not shown) [Compound 64D, 2-allyl-1-(2-chlorophenyl)-7-hydroxy-5-methyl-1,2,3,4,4a,5-hexahydrodipyrido[1,2-b:2′,1′-f][1,2,4]triazine-6,8-dione], 4.6 nM.
The same measure, in the same setting: the figure for `CCN1C(=O)c2c(O)c(=O)ccn2N2C(c3ccccc3)C(C3(C(F)(F)F)CC3)CCC12` (single isomer, unassigned) [Compound 104B, 5-ethyl-7-hydroxy-1-phenyl-2-(1-(trifluoromethyl)cyclopropyl)-1,2,3,4,4a,5-hexahydrodipyrido[1,2-b:2′,1′-f][1,2,4]triazine-6,8-dione] is > 810 nM; for `CCC1(c2ccccc2)CCC2N(C)C(=O)c3c(O)c(=O)ccn3N21` (single isomer, unassigned) [Compound 62D, 1-ethyl-6-hydroxy-4-methyl-1-phenyl-2,3,3a,4-tetrahydro-1H-pyrido[2,1-f]pyrrolo[1,2-b][1,2,4]triazine-5,7-dione] it is 7970 nM.
Still for that read-out and setting: the figure for `Cc1ccccc1C1C(c2ccc(F)c(F)c2)CCC2N(C)C(=O)c3c(O)c(=O)ccn3N12` (single isomer, unassigned) [Compound 91A, 2-(3,4-difluorophenyl)-7-hydroxy-5-methyl-1-(o-tolyl)-1,2,3,4,4a,5-hexahydrodipyrido[1,2-b:2′,1′-f][1,2,4]triazine-6,8-dione] is 485 nM; for `O=C1c2c(O)c(=O)ccn2N2C(c3ccccc3)C(CC3(C(F)(F)F)CC3)CCC2N1CC1CC1` (single isomer, unassigned) [Compound 90B, 5-(cyclopropylmethyl)-7-hydroxy-1-phenyl-2-((1-(trifluoromethyl)cyclopropyl)methyl)-1,2,3,4,4a,5-hexahydrodipyrido[1,2-b:2′,1′-f][1,2,4]triazine-6,8-dione] it is 29.3 nM; for `CN1C(=O)c2c(O)c(=O)ccn2N2C(c3cccc4ccccc34)CCCC12` (single isomer, unassigned) [Compound 5B, 7-hydroxy-5-methyl-1-(naphthalen-1-yl)-1,2,3,4,4a,5-hexahydrodipyrido[1,2-b:2′,1′-f][1,2,4]triazine-6,8-dione] it is 1700 nM.

The assay is the same for the next values; noted with them: MDCK, 48 h.
As to `COCCC1CCC2N(C)C(=O)c3c(O)c(=O)ccn3N2C1c1ccccc1Cl` (stereo not shown) [Compound 67, 1-(2-chlorophenyl)-7-hydroxy-2-(2-methoxyethyl)-5-methyl-1,2,3,4,4a,5-hexahydrodipyrido[1,2-b:2′,1′-f][1,2,4]triazine-6,8-dione], the 50% effective concentration (EC50) amounted to 16.4 nM. This lies in the double-digit nanomolar range.
On the same count and under the same terms, under `CN1C(=O)c2c(O)c(=O)ccn2N2[C@H](c3ccccc3)[C@H](OCCF)CC[C@@H]12` [Compound 162, (1R,2R,4aS)-2-(2-fluoroethoxy)-7-hydroxy-5-methyl-1-phenyl-1,2,3,4,4a,5-hexahydrodipyrido[1,2-b:2′,1′-f][1,2,4]triazine-6,8-dione] stands 195 nM; under `CN1C(=O)c2c(O)c(=O)ccn2N2[C@H](c3ccccc3)[C@@H](N=[N+]=[N-])CC[C@@H]12` [Compound 139, (1R,2S,4aS)-2-azido-7-hydroxy-5-methyl-1-phenyl-1,2,3,4,4a,5-hexahydrodipyrido[1,2-b:2′,1′-f][1,2,4]triazine-6,8-dione], 23.6 nM.
Same read-out and setting: the figure for `CN1C(=O)c2c(O)c(=O)c(C#N)cn2N2C(c3ccccc3)C(CC(F)(F)F)CCC12` (stereo not shown) [Compound 133, 7-hydroxy-5-methyl-6,8-dioxo-1-phenyl-2-(2,2,2-trifluoroethyl)-1,2,3,4,4a,5,6,8-octahydrodipyrido[1,2-b:2′,1′-f][1,2,4]triazine-9-carbonitrile] is > 810 nM; for `CN1C(=O)c2c(O)c(=O)ccn2N2C(c3cccc4ccccc34)CCCC12` (single isomer, unassigned) [Compound 5A, 7-hydroxy-5-methyl-1-(naphthalen-1-yl)-1,2,3,4,4a,5-hexahydrodipyrido[1,2-b:2′,1′-f][1,2,4]triazine-6,8-dione] it is 1530 nM.
